Measurements from the supplement of paper PMC10307832.

How the values were obtained:
Experiment in all cases: relative viability (nuclei count vs DMSO), 5 days (fraction); higher = more cells survive
AZD1208 + Bortezomib = compound: N[C@@H]1CCCN(c2c(/C=C3\SC(=O)NC3=O)cccc2-c2ccccc2)C1 [AZD1208] + CC(C)C[C@H](NC(=O)[C@H](Cc1ccccc1)NC(=O)c1cnccn1)B(O)O [Bortezomib] (partner 0.002 µM)
Method in brief: (§1)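 Medians of duplicate plates are given as relative viability. That measure is the nuclei count in treated wells divided by the count in vehicle wells. Counts were taken on 4× images of lung cancer cell lines in 1536-well plates, 5 days after pin-tool dosing the day after seeding with one drug alone or a fixed anchor-drug dose plus five library-drug doses (not always all listed) in √10 steps.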

AZD1208 + Linsitinib = compound: N[C@@H]1CCCN(c2c(/C=C3\SC(=O)NC3=O)cccc2-c2ccccc2)C1 [AZD1208] + C[C@]1(O)C[C@@H](c2nc(-c3ccc4ccc(-c5ccccc5)nc4c3)c3c(N)nccn32)C1 [Linsitinib] (partner 1 µM)
Method in brief: as §1

XMD14-99 + Tozasertib = compound: CN1CCN(CC1)C2=CC(=C(C=C2)NC3=NC(=C(S3)C(=O)C4=C(C=CC=C4Cl)Cl)N)OC [XMD14-99] + Cc1cc(Nc2cc(N3CCN(C)CC3)nc(Sc3ccc(NC(=O)C4CC4)cc3)n2)n[nH]1 [Tozasertib] (partner 0.1 µM)
Method in brief: as §1

AZD1208 + Foretinib = compound: N[C@@H]1CCCN(c2c(/C=C3\SC(=O)NC3=O)cccc2-c2ccccc2)C1 [AZD1208] + COc1cc2c(Oc3ccc(NC(=O)C4(C(=O)Nc5ccc(F)cc5)CC4)cc3F)ccnc2cc1OCCCN1CCOCC1 [Foretinib] (partner 0.25 µM)
Method in brief: as §1

Row | Cell Line | relative viability (AZD1208 + Bortezomib; first compound 0.08 µM) | relative viability (AZD1208 + Bortezomib; first compound 0.253 µM) | relative viability (AZD1208 + Bortezomib; first compound 0.8 µM) | relative viability (AZD1208 + Bortezomib; first compound 2.53 µM) | relative viability (AZD1208 + Bortezomib; first compound 8 µM) | relative viability (AZD1208 + Linsitinib; first compound 0.08 µM) | relative viability (AZD1208 + Linsitinib; first compound 0.253 µM) | relative viability (AZD1208 + Linsitinib; first compound 0.8 µM) | relative viability (AZD1208 + Linsitinib; first compound 2.53 µM) | relative viability (AZD1208 + Linsitinib; first compound 8 µM) | relative viability (XMD14-99 + Tozasertib; first compound 0.08 µM) | relative viability (XMD14-99 + Tozasertib; first compound 0.8 µM) | relative viability (XMD14-99 + Tozasertib; first compound 2.53 µM) | relative viability (XMD14-99 + Tozasertib; first compound 8 µM) | relative viability (AZD1208 + Foretinib; first compound 0.08 µM) | relative viability (AZD1208 + Foretinib; first compound 0.253 µM) | relative viability (AZD1208 + Foretinib; first compound 0.8 µM) | relative viability (AZD1208 + Foretinib; first compound 2.53 µM) | relative viability (AZD1208 + Foretinib; first compound 8 µM)
1 | HCC-78 | 0.474 | 0.586 | 0.453 | 0.475 | 0.529 | 0.513 | 0.495 | 0.45 | 0.439 | 0.415 | 0.407 | 0.335 | 0.398 | 0.347 | 0.549 | 0.499 | 0.512 | 0.526 | 0.625
2 | HCC-366 | 1.02 | 1.09 | 0.943 | 1.03 | 0.973 | 0.626 | 0.588 | 0.5 | 0.558 | 0.439 | 0.117 | 0.109 | 0.657 | 0.0463 | 0.903 | 0.985 | 0.843 | 0.949 | 0.899
3 | HCC-827 | 1.13 | 1.06 | 0.97 | 1.07 | 1.14 | 0.965 | 1.03 | 1.01 | 1.01 | 1.02 | 0.393 | 0.394 | 0.342 | 0.404 | 1.14 | 1.1 | 1.05 | 1 | 1.03
4 | HOP-62 | 0.827 | 1.06 | 0.724 | 0.598 | 0.507 | 1.06 | 0.843 | 1.05 | 1.11 | 0.623 | 0.375 | 0.341 | 0.351 | 0.241 | 1.03 | 1.16 | 1.02 | 1.03 | 1.06
5 | IA-LM | 0.648 | 0.708 | 0.876 | 0.724 | 0.746 | 0.625 | 0.827 | 0.524 | 0.529 | 0.69 |  |  |  |  | 1.07 | 1.09 | 0.924 | 1.14 | 1.05
6 | LC-2-ad | 1.01 | 0.979 | 0.978 | 0.819 | 0.833 | 0.803 | 0.673 | 0.833 | 0.801 | 0.894 | 0.399 | 0.481 | 0.484 | 0.418 | 0.903 | 0.924 | 0.871 | 0.85 | 0.912
7 | LCLC-97TM1 | 0.671 | 0.737 | 0.51 | 0.762 | 0.475 | 0.156 | 0.206 |  | 0.133 | 0.132 | 0.401 | 0.238 | 0.202 | 0.211 | 0.914 | 0.945 | 1.03 | 0.891 | 0.8
8 | LK-2 |  |  |  |  |  | 0.43 | 0.523 | 0.302 | 0.263 | 0.268 | 0.171 | 0.185 | 0.171 | 0.192 | 0.935 | 0.707 | 0.821 | 0.574 | 0.421
9 | NCI-H358 |  |  |  |  |  | 0.675 | 0.604 | 0.564 | 0.71 | 0.605 | 0.0889 | 0.102 | 0.0882 | 0.0609 | 0.594 | 0.692 | 0.573 | 0.698 | 0.522
10 | NCI-H522 |  |  |  |  |  |  |  |  |  |  | 0.513 | 0.646 | 0.712 | 0.639 |  |  |  |  | 
11 | NCI-H1299 | 1.06 | 1.07 | 0.994 | 0.986 | 1.02 | 1.03 | 1.13 | 0.997 | 1.01 | 1.08 |  |  |  |  | 1.11 | 1.08 | 1.08 | 1.14 | 1.07
12 | NCI-H1395 |  |  |  |  |  | 0.989 | 1.15 | 0.979 | 1.07 | 0.881 | 0.689 | 0.79 | 0.537 | 0.651 | 0.988 | 1 | 1.01 | 0.97 | 0.959
13 | NCI-H1563 | 0.829 | 0.811 | 0.958 | 0.754 | 0.765 | 1.18 | 1.19 | 1.18 | 1.26 | 1.16 |  |  |  |  | 1.07 | 1.02 | 0.919 | 0.994 | 0.908
14 | NCI-H1648 |  |  |  |  |  |  |  |  |  |  | 0.362 | 0.292 | 0.316 | 0.253 |  |  |  |  | 
15 | NCI-H1650 | 0.201 | 0.19 | 0.226 | 0.199 | 0.192 |  |  |  |  |  | 0.351 | 0.422 | 0.319 | 0.258 | 1.08 | 0.993 | 1.17 | 1.05 | 1.1
16 | NCI-H1703 | 0.277 | 0.159 | 0.246 | 0.253 | 0.305 | 0.751 | 0.56 | 0.602 | 0.651 | 0.508 |  |  |  |  | 0.268 | 0.333 | 0.275 | 0.301 | 0.335
17 | NCI-H1792 | 0.999 | 0.987 | 0.903 | 0.958 | 0.86 | 0.474 | 0.648 | 0.446 | 0.439 | 0.467 |  |  |  |  |  |  |  |  | 
18 | NCI-H1793 |  |  |  |  |  | 0.765 | 0.804 | 0.564 | 0.967 | 0.583 | 0.329 | 0.377 | 0.34 | 0.28 | 0.578 | 0.653 | 0.545 | 0.749 | 0.631
19 | NCI-H1944 |  |  |  |  |  | 1.14 | 1.19 | 1.01 | 0.953 | 0.82 | 0.226 | 0.256 | 0.255 | 0.235 | 0.829 | 0.838 | 0.774 | 0.688 | 0.571
20 | NCI-H2170 |  |  |  |  |  |  |  |  |  |  | 0.702 | 0.667 | 0.696 | 0.575 | 1.07 | 1.07 | 1.08 | 1.03 | 0.878
21 | NCI-H2342 |  |  |  |  |  |  |  |  |  |  | 0.483 | 0.628 | 0.591 | 0.516 | 0.922 | 0.946 | 0.934 | 1.02 | 0.801
22 | SK-MES-1 |  |  |  |  |  | 1.01 | 1.02 | 1.06 | 1.04 | 0.969 | 0.925 | 0.861 | 0.761 | 0.5 | 0.84 | 0.949 | 0.817 | 0.769 | 0.661
23 | SW 900 |  |  |  |  |  |  |  |  |  |  | 0.665 | 0.453 | 0.451 | 0.37 | 0.817 | 0.807 | 0.691 | 0.947 | 0.923
